Assay results reported in the supplement of paper PMC13380429.
± gives the standard deviation of the averaged measurements.

What was measured:
Conditions in all cases: 72 h
[1] = system: Calu-3; assay: cell viability relative to DMSO; higher = less toxic
[2] = system: U2OS; assay: as above
[3] = system: Vero E6; assay: as above
[4] = system: HepG2; assay: as above
[5] = system: Caco-2; assay: as above
[6] = system: Calu-3; assay: drug sensitivity score (DSS) for viability; higher = more toxic; extreme values may be limits of the assay
[7] = system: U2OS; assay: as above
[8] = system: Vero E6; assay: as above
[9] = system: HepG2; assay: as above
[10] = system: Caco-2; assay: as above
[11] = system: Calu-3; assay: relative viability EC50 (midpoint between 100% and the lowest measured viability); higher = less toxic
[12] = system: U2OS; assay: as above
[13] = system: Vero E6; assay: as above
[14] = system: HepG2; assay: as above
[15] = system: Caco-2; assay: as above

SMILES	cell viability ([1]; 1 nM) [%]	cell viability ([1]; 10 nM) [%]	cell viability ([1]; 100 nM) [%]	cell viability ([1]; 1000 nM) [%]	cell viability ([1]; 10000 nM) [%]	cell viability ([2]; 1 nM) [%]	cell viability ([2]; 10 nM) [%]	cell viability ([2]; 100 nM) [%]	cell viability ([2]; 1000 nM) [%]	cell viability ([2]; 10000 nM) [%]	cell viability ([3]; 1 nM) [%]	cell viability ([3]; 10 nM) [%]	cell viability ([3]; 100 nM) [%]	cell viability ([3]; 1000 nM) [%]	cell viability ([3]; 10000 nM) [%]	cell viability ([4]; 1 nM) [%]	cell viability ([4]; 10 nM) [%]	cell viability ([4]; 100 nM) [%]	cell viability ([4]; 1000 nM) [%]	cell viability ([4]; 10000 nM) [%]	cell viability ([5]; 1 nM) [%]	cell viability ([5]; 10 nM) [%]	cell viability ([5]; 100 nM) [%]	cell viability ([5]; 1000 nM) [%]	cell viability ([5]; 10000 nM) [%]	drug sensitivity score [6]	drug sensitivity score [7]	drug sensitivity score [8]	drug sensitivity score [9]	drug sensitivity score [10]	relative viability EC50 [11] [µM]	relative viability EC50 [12] [µM]	relative viability EC50 [13] [µM]	relative viability EC50 [14] [µM]	relative viability EC50 [15] [µM]
CC[C@H](C)[C@@H]1NC(=O)[C@H](Cc2ccc(O)cc2)NC(=O)[C@@H](N)CSSC[C@@H](C(=O)N2CCC[C@H]2C(=O)N[C@@H](CC(C)C)C(=O)NCC(N)=O)NC(=O)[C@H](CC(N)=O)NC(=O)[C@H](CCC(N)=O)NC1=O [oxytocin]	92	93.8	98.9	103	97	98.2	99	98.3	98.5	95.7	106	112	98.7	105	99.2	114	96.1	105	87.7	99.2	95.5	122	82.2	100	100	0	0	0	0	0	> 10	> 10	> 10	> 10	> 10
CN1C(=O)C(N2CCCCC2)S/C1=C\C(=O)O (stereo not given) [ozolinone]	102	93.9	94.1	93.5	95	95.5	97.5	102	99.6	100	97.1	103	97	102	117	89.5	107	104	87.1	105	113	96.7	92.1	105	114	0	0	0	0	0	> 10	> 10	> 10	> 10	> 10
C#CCN(C)Cc1ccccc1 [pargyline]	93.5	97.4	95.4	89.3	102	99.2	101	99.9	102	103	96.4	96.3	92.7	93.1	107	98.7	96.2	109	89.7	102	96	93	96.3	98.6	103	0	0	0	0	0	> 10	> 10	> 10	> 10	> 10
FC(F)(F)C(F)(F)C(F)(F)C(F)(F)C(F)(F)C(F)(F)C(F)(F)C(F)(F)Br [perflubron]	87.9	108	98.1	102	93.4	98.1	100	94.1	104	97.1	109	101	102	92.4	96.7	104	102	99.9	96.4	105	97	98.9	91.8	103	91.2	0	0	0	0	0	> 10	> 10	> 10	> 10	> 10
Nc1ccc(/N=N/c2ccccc2)c(N)n1 [phenazopyridine]	91.9	102	88.1	99.1	95.8	94	98.4	95.7	99.2	103	109	88.6	102	102	82.7	91.1	91.8	105	89.4	100	85.4	102	97	99.8	94	0	0	0.3	0	0	> 10	> 10	> 10	> 10	> 10
CN1C(CSCC(F)(F)F)Nc2cc(Cl)c(S(N)(=O)=O)cc2S1(=O)=O (stereo not given) [polythiazide]	95.7	98.5	107	101	109	98.4	97.5	104	96.2	100	91.7	98.8	86.6	96.8	108	93.7	110	99.6	103	106	88.1	90.5	95.2	94.9	93	0	0	0	0	0	> 10	> 10	> 10	> 10	> 10
CCCCOc1ccc(OCCCN2CCOCC2)cc1 [pramoxine]	104	99.1	87.1	95.1	102	105	105	104	102	99.3	103	97.3	98.8	102	103	97.1	98.3	98.1	94.7	98.9	105	109	97.8	95.8	98	0	0	0	0	0	> 10	> 10	> 10	> 10	> 10
N#Cc1c[nH]c2c(C(=O)N3CCN(CCc4ccc(F)cc4)CC3)cccc12 [pruvanserin]	91.8	112	91.4	112	101	94	98.4	92.5	104	100	105	86.8	102	95.2	98.4	103	110	117	98.1	99.3	94.9	95.3	96.9	98.1	95.7	0	0	0	0	0	> 10	> 10	> 10	> 10	> 10
O=c1c(-c2ccc(O)cc2)coc2c([C@@H]3O[C@H](CO)[C@@H](O)[C@H](O)[C@H]3O)c(O)ccc12 [puerarin]	89.3	92.3	97.5	89.6	95.6	99.7	95.2	96	94.6	100	99.7	99.5	99.9	107	103	94.4	102	94.8	107	98.2	98.4	99.8	96	98	101	0	0	0	0	0	> 10	> 10	> 10	> 10	> 10
CCCN1CCC[C@@H]2Cc3nc(N)ncc3C[C@H]21 [quinelorane]	102	99	93.2	103	105	103	105	102	97.1	98.5	102	99.6	101	93.2	99	95.9	94.1	97.6	91.8	96.4	101	92.9	98.6	85.7	104	0	0	0	0	0	> 10	> 10	> 10	> 10	> 10
COc1ccc(C2CNC(=O)C2)cc1OC1CCCC1 (stereo not given) [rolipram]	98.2 ± 12	97.6 ± 12	103 ± 5.5	98.4 ± 3.5	103 ± 1.6	96.2 ± 1.5	97 ± 4.4	96.1 ± 2.3	99.1 ± 0.14	101 ± 2.9	93.6 ± 10	95.1 ± 8.9	94.4 ± 4.2	96.8 ± 4.5	102 ± 4.8	102 ± 3.5	102 ± 6.4	101 ± 5.8	106 ± 5.5	101 ± 2.2	95.2 ± 7.2	96.4 ± 2.8	97.7 ± 5.3	98.8 ± 7.4	110 ± 4.9	0	0	0.0667 ± 0.12	0	0	> 10	> 10	> 10	> 10	> 10
COc1cccc(CCc2ccccc2OCC(CN(C)C)OC(=O)CCC(=O)O)c1 (stereo not given) [sarpogrelate]	96.5	98.3	96.4	102	96.9	100	105	99.8	103	95.3	105	98.6	104	100	95.8	109	104	105	92.5	102	92.1	101	98.4	105	98.2	0	0	0	0	0	> 10	> 10	> 10	> 10	> 10
COc1cc(C[C@@H](CO[C@@H]2O[C@H](CO)[C@@H](O)[C@H](O)[C@H]2O)[C@H](CO[C@@H]2O[C@H](CO)[C@@H](O)[C@H](O)[C@H]2O)Cc2ccc(O)c(OC)c2)ccc1O [secoisolariciresinol-diglucoside]	103	92.9	87.4	103	102	94	96.7	101	101	97.9	95.6	101	93.6	97.8	110	98.7	104	102	111	110	100	93.6	96.7	99.4	108	0	0	0	0	0	> 10	> 10	> 10	> 10	> 10
CC(SC(=O)c1cccs1)C(=O)NCC(=O)O (stereo not given) [stepronin]	91.9	106	97.6	110	97.5	96.6	104	93.5	99	97.1	109	91.9	108	101	98.8	106	102	105	88.6	97	112	84.4	96.1	103	103	0	0	0	0.3	0	> 10	> 10	> 10	> 10	> 10
COc1cc(C(=S)N2CCOCC2)cc(OC)c1OC [sulmetozine]	96.5	99.4	102	99.9	105	97.2	103	94.6	96.3	102	103	94.7	105	97.7	113	95	102	98.6	111	108	90.8	98	90.6	91.6	103	0	0	0	0	0	> 10	> 10	> 10	> 10	> 10
Cc1coc2c1C(=O)C(=O)c1c-2ccc2c(C)cccc12 [tanshinone-I]	93.8	91.7	104	110	100	97.8	97.8	103	93.9	95.2	91.9	94.9	90.7	96.5	104	91	104	89.4	111	105	93.1	97.4	104	90.7	86.2	0	0	0	0	0.7	> 10	> 10	> 10	> 10	> 10
CCCCCNC(=N)N/N=C/c1c[nH]c2ccc(OC)cc12 [tegaserod]	105	96.3	97.9	91.4	92.9	94.1	99.3	94.6	97.7	95.9	100	94.4	97.8	90.7	92.8	94.6	94	109	105	114	83.7	89.8	108	84.7	96.9	0	0	0	0	0	> 10	> 10	> 10	> 10	> 10
O=C(CNC(=O)c1cccc(C(F)(F)F)c1)N[C@@H]1CCN(Cc2ccc(Cl)cc2)C1 [teijin-compound-1]	95.9	98.8	95.9	94.4	91.5	95.7	98.5	95.6	99.7	91.1	109	102	100	98.1	94.8	108	110	107	92	83.8	113	108	106	98.8	78	0	0	0	1	0.9	> 10	> 10	> 10	> 10	> 10
CCOC(=O)[C@H](CCc1ccccc1)N[C@H]1CS[C@H](c2cccs2)CN(CC(=O)O)C1=O [temocapril]	93.8	108	95.5	103	102	97.7	101	94.2	99.2	95.4	98.8	105	109	91.3	97.8	103	98.6	108	96.7	112	99.4	95.8	93.2	93.3	105	0	0	0	0	0	> 10	> 10	> 10	> 10	> 10
COc1cc2c(cc1OC)C1CC(=O)C(CC(C)C)CN1CC2 (stereo not given) [tetrabenazine]	107	103	96.3	105	104	95.9	99.3	94.7	93.9	103	96.6	97.8	96.2	99.1	95	95.1	99.4	98.8	99.9	105	97.6	99.3	96.3	96.5	100	0	0	0	0	0	> 10	> 10	> 10	> 10	> 10
O=C(O)C(=O)c1cn(Cc2ccccc2)c2ccc(-c3ccc(OC(F)(F)F)cc3)cc12 [tiplaxtinin]	113	95.5	96.8	98.6	104	94.5	92.1	104	94.7	96.5	108	106	96.6	98.2	81.3	104	98.8	102	93.8	93.1	104	106	102	92.2	92.8	0	0	0.7	0	0	> 10	> 10	> 10	> 10	> 10
NC[C@H]1O[C@H](O[C@H]2[C@H](O)[C@@H](O[C@H]3O[C@H](CO)[C@@H](O)[C@H](N)[C@H]3O)[C@H](N)C[C@@H]2N)[C@H](N)C[C@@H]1O [tobramycin]	99.4	102	101	98.5	102	95	103	97.6	100	108	99.6	101	100	95.7	107	108	94.5	104	97.6	106	90.2	92.8	104	92.6	106	0	0	0	0	0	> 10	> 10	> 10	> 10	> 10
